How the values were obtained:
tetR = molecular target: T1, tetR (Escherichia coli, UniProt P04483); test: T7 in vitro transcription from tetR-controlled reporter plasmid, ATC titration; assay type: biochemical; settings: 100 nM tetR and 100 nM reporter plasmid; ATC titrated 2 uM to 0 uM; 37° C., 4 hours; agarose gel readout
T1 construct: The tetR gene was cloned into the pET28a(+) E. coli expression plasmid; 6xHis (C); made in house; host or cells: E. coli BL21(DE3), pET28a(+)
Procedure: Using a fixed amount of tetR and plasmid, 100 nM each, T7 transcription reactions were set up as described above with the inclusion of a titrating amount of anhydrotetracycline (ATC), the native ligand for tetR. The ATC titration ranged from 2 uM to 0 uM. The IVT transcripts were analyzed by gel as described above. […] This titratable response is a requirement when working with engineered sensors cell-free to enrich a population for those members with improved ligand binding function in the pool.

cells = test: cell-based dose response of TetR sensors to nootkatone (FIG. 10); settings: cell-based sensor assay
Source text: This is particularly useful in situations when, inter alia, a target molecule is toxic to cells in vivo and therefore a sensor to conduct cell-based detection is impractical. […] Accordingly, the detection of this target molecule would benefit from the cell-free methods described herein.

T1 sequence (P04483 whole entry): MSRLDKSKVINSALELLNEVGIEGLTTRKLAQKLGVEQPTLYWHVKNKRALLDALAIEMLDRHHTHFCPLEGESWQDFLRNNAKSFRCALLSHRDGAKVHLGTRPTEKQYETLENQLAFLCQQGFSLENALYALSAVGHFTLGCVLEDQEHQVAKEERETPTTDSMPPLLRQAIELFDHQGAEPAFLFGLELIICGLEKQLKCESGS

| SMILES | ATC concentration giving a strong RNA band similar to no tetR (full derepression of transcription) (tetR) [nM] | nootkatone concentration after which there is a toxic effect and the cells start to die (cells) [mg/mL] |
| --- | --- | --- |
| Cc1c2c(c(O)c3c(O)cccc13)C(=O)[C@]1(O)C(=O)C(C(N)=O)=C(O)[C@@H](N(C)C)[C@@H]1C2 [ATC, anhydrotetracycline] | 200 | – |
| C=C(C)[C@@H]1CCC2=CC(=O)C[C@@H](C)[C@]2(C)C1 [nootkatone] | – | > 0.5 |

From US20190195864A1, “CELL-FREE SENSOR SYSTEMS” (priority 2016, published 2019)
